Laboratory results: PubChem BioAssay (NCI)
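Interpolation was linear, between the two tested concentrations surrounding the appropriate level; five concentrations were tested over 48 hours in 96-well plates. The concentration for 50% growth inhibition is given as GI50. TGI: total growth inhibition.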

Assays:
Assay in all cases: NCI anticancer screen, dose series, 48 h
ACHN renal = tested on: ACHN renal
786-0 renal = tested on: 786-0 renal
HOP-92 NSCLC = tested on: HOP-92 NSCLC
MDA-MB-468 breast = tested on: MDA-MB-468 breast
OVCAR-8 ovarian = tested on: OVCAR-8 ovarian
OVCAR-5 ovarian = tested on: OVCAR-5 ovarian
SK-MEL-5 melanoma = tested on: SK-MEL-5 melanoma
HCT-116 colon = tested on: HCT-116 colon
MCF7 breast = tested on: MCF7 breast
SNB-19 CNS = tested on: SNB-19 CNS
PC-3 prostate = tested on: PC-3 prostate
NCI-H522 lung = tested on: NCI-H522 lung
SK-MEL-2 melanoma = tested on: SK-MEL-2 melanoma
TK-10 renal = tested on: TK-10 renal
A549 NSCLC = tested on: A549 NSCLC
HS 578T breast = tested on: HS 578T breast
MDA-MB-231 breast = tested on: MDA-MB-231 breast
IGROV1 ovarian = tested on: IGROV1 ovarian
LOX IMVI melanoma = tested on: LOX IMVI melanoma
NCI-H460 lung = tested on: NCI-H460 lung
M14 melanoma = tested on: M14 melanoma
BT-549 breast = tested on: BT-549 breast
U251 CNS = tested on: U251 CNS
HOP-62 NSCLC = tested on: HOP-62 NSCLC
SR leukemia = tested on: SR leukemia
MALME-3M melanoma = tested on: MALME-3M melanoma
CAKI-1 renal = tested on: CAKI-1 renal
K-562 leukemia = tested on: K-562 leukemia

Compound O=C(/C=C/c1ccccc1)c1nc2ccccc2n1Cc1ccc(Br)cc1 has a GI50 (ACHN renal) of 3.12 µM, a TGI (ACHN renal) of 10.1 µM and a GI50 (786-0 renal) of 1.79 µM. The TGI (786-0 renal) was 3.34 µM, the GI50 (HOP-92 NSCLC) was 1.92 µM and the TGI (HOP-92 NSCLC) was 8.58 µM. The GI50 (MDA-MB-468 breast) was 1.89 µM, the TGI (MDA-MB-468 breast) was 3.81 µM and the GI50 (OVCAR-8 ovarian) was 2.84 µM. For the same compound, the TGI (OVCAR-8 ovarian) was 8.8 µM, the GI50 (OVCAR-5 ovarian) was 2.2 µM and the TGI (OVCAR-5 ovarian) was 4.54 µM. For the same compound, the GI50 (SK-MEL-5 melanoma) was 2.44 µM, the TGI (SK-MEL-5 melanoma) was 6.95 µM and the GI50 (HCT-116 colon) was 1.71 µM. For the same compound, the TGI (HCT-116 colon) was 3.16 µM, the GI50 (MCF7 breast) was 1.78 µM and the TGI (MCF7 breast) was 6.26 µM. The GI50 (SNB-19 CNS) was 1.81 µM, the TGI (SNB-19 CNS) was 3.64 µM and the GI50 (PC-3 prostate) was 3.14 µM. The TGI (PC-3 prostate) was 9.31 µM, the GI50 (NCI-H522 lung) was 1.84 µM and the TGI (NCI-H522 lung) was 4.04 µM. For the same compound, the GI50 (SK-MEL-2 melanoma) was 2.23 µM, the TGI (SK-MEL-2 melanoma) was 5.08 µM and the GI50 (TK-10 renal) was 2.57 µM. It also gave a TGI (TK-10 renal) of 7.63 µM, a GI50 (A549 NSCLC) of 3.51 µM and a TGI (A549 NSCLC) of 20.4 µM. It also gave a GI50 (HS 578T breast) of 4.22 µM, a TGI (HS 578T breast) of 53.4 µM and a GI50 (MDA-MB-231 breast) of 2.26 µM. The TGI (MDA-MB-231 breast) was 5.16 µM, the GI50 (IGROV1 ovarian) was 2.32 µM and the TGI (IGROV1 ovarian) was 5.53 µM. It also gave a GI50 (LOX IMVI melanoma) of 1.65 µM, a TGI (LOX IMVI melanoma) of 3.12 µM and a GI50 (NCI-H460 lung) of 1.8 µM. The TGI (NCI-H460 lung) was 3.64 µM, the GI50 (M14 melanoma) was 2.16 µM and the TGI (M14 melanoma) was 4.77 µM. It also gave a GI50 (BT-549 breast) of 1.93 µM, a TGI (BT-549 breast) of 4.7 µM and a GI50 (U251 CNS) of 1.65 µM. The TGI (U251 CNS) was 3.2 µM, the GI50 (HOP-62 NSCLC) was 2.21 µM and the TGI (HOP-62 NSCLC) was 5.09 µM. It also gave a GI50 (SR leukemia) of 1.97 µM, a TGI (SR leukemia) of 6.01 µM and a GI50 (MALME-3M melanoma) of 1.94 µM. The TGI (MALME-3M melanoma) was 4.63 µM, the GI50 (CAKI-1 renal) was 2.6 µM and the TGI (CAKI-1 renal) was 11.2 µM. The GI50 (K-562 leukemia) was 2.39 µM and the TGI (K-562 leukemia) was 6.6 µM.
